# Laboratory results published in publication PMC12455390, “Three Is Better than One: A Multimetal Complex that Triggers Immunogenic Cell Death” (Angewandte Chemie (International Ed. in English), 2025).
# Where two headings read alike, the source gives them in different places.
# Experiments:
# [1] = tested on: CT26 colorectal cancer model; details: CT26 tumors in BALB/c mice, i.p. on days 8, 10, 12 & 14, day 16, doxorubicin 2 mg/kg, mixture 5.7 + 4 + 12 mg/kg, complex 5 21 mg/kg
# Method: The experimental protocol consisted of inoculating mice with 1.5 x 10^6 CT26 cells on day 0. When the tumors became palpable, a series of four intraperitoneal (i.p.) injections were carried out on days 8, 10, 12, & 14. On day 16 mice (n = 5) were euthanized and organs including tumors (Figure S37) were collected and analyzed for their metal content via ICP‐MS (Figure 6a). The doxorubicin dosage was based on a previous report.^[ [32] ^]
# Procedures were conducted in accordance with the Guide for the Care and Use of Laboratory Animals (U.S. Public Health Service, National Institute of Health) and the protocol for this experiment was approved by the Institutional Animal Care and Use Committee (IACUC, protocol numbers AUP-2022-00101 & AUP-2024-00337) at The University of Texas at Austin. Briefly, 6-8 weeks female BALB/c mice were acclimatized for 7 days thereafter, murine colon carcinoma cells, CT26 (1.5 x 10^6 cells in 100 μL of sterile PBS) were subcutaneously injected to the right flank. The experiments were initiated once tumors became palpable on Day 8. […] The animals were monitored for the development of pain or distress symptoms with the body weight and tumor size also being closely monitored. […] On day 16, mice were euthanized, and tumor and organs (liver, kidney, spleen, heart and lungs) were collected for ICP-MS metal quantification.
# CT26 challenge model = assay: In vivo CT26 vaccination/challenge model; set-up: species or system BALB/c mice; details: mice vaccinated with CT26 cells pretreated 24 h at IC50, challenged after 7 days
# Method: Induction of an immunogenic response in vivo was determined using the established preclinical CT26 challenge model depicted in Figure 8a.^[ [33] ^] […] After 7 days, the mice were challenged with 5 x 10^5 naive CT26 cells injected into the left flank (challenge flank). Mice were monitored thereafter to assess the level, if any, of tumor development on the challenge (left) side. Monitoring was continued for 28 days. […] These are animals in which ICD induction was not expected. Tumor free survival was seen up to day 14 and up to day 21 in the doxorubicin and 1 + Oxa + 2 groups, respectively.
# After 7 days, mice were inoculated s.c. with 5 x 10^5 naive CT26 cancer cells into the contralateral flank. Prior to all injections, the supernatant of one flask per harvest day was tested for mycoplasma contamination (MycoAlert™, Lonza, Rockland, ME), which yielded negative results on all days. Body weights and tumor measurements were checked daily, and tumor development was compared among groups.
# white blood cells = assay: Total and differential WBC manual count in challenge study; format: in vivo, BALB/c mice; details: mice injected with pretreated CT26 cells
# Text: To test this proposition, whole blood samples were collected from mice before vaccination (day ‐7), before challenge (day 0), and 7 days after challenge (day 7) as outlined in Figure 8a. The samples were subjected to a manual count of total white blood cell (WBC) using Tuerk staining and differential leukocytes (monocytes, lymphocytes, neutrophils, eosinophils, and basophils) using Wright staining (see Supporting Information). The results are summarized in Figure 8c as total WBC per µL (Figure 8c), differential percentages of monocytes (Figure 8d), and lymphocytes (Figure 8e) corresponding to an innate and adaptive immune response, respectively. The neutrophil, eosinophil, and basophil levels remained unchanged. […]
# Blood samples were collected from all mice groups by tail vein and were analyzed for total WBC count and differential count.^9 Blood was draw on Day -7 (before vaccination), Day 0 (before rechallenge) and Day 7. Total WBC was analyzed by adding 2 µL of blood to 38 µL Tuerk solution (Sigma-Aldrich product - 93770) and was counted using a hemocytometer after 45 min under a 10x light microscope. […] 200 WBC cells were counted and classified under 1000x magnification using a Leica DMI6000b microscope.
structure (smiles),measurement,setting,value
"COc1cccc2c1C(=O)c1c(O)c3c(c(O)c1C2=O)C[C@@](O)(C(=O)CO)C[C@@H]3O[C@H]1C[C@H](N)[C@H](O)[C@H](C)O1 [Doxorubicin, doxorubicin, reference compound]",Inhibition of Tumor Growth,[1],40.8%
same,Inhibition of Tumor Growth,[1]; listed as doxorubicin,~40%
same,tumor free survival up to day,CT26 challenge model,≤ 14 days
same,total WBC count,"white blood cells; day 0, trends retained through day 7",significant reduction in total WBC count
same,differential monocyte and lymphocyte percentages,white blood cells; days 0 and 7,transient increase in lymphocyte percentages
